Laboratory results: ChEMBL document CHEMBL1123898, “Antitumor imidazotetrazines. 14. Synthesis and antitumor activity of 6- and 8-substituted imidazo[5,1-d]-1,2,3,5-tetrazinones and 8-substituted pyrazolo[5,1-d]-1,2,3,5-tetrazinones” (1987)

Legend:
L1210 [1] = assay: Antitumor activity was assessed against L1210 tumors in B6D2F1 mouse by inoculation of 10e5 tumor cells through iv route and number of Survivors to duration was reported at 200 mg/kg po dose; 1/7; type: functional
[2] = Antitumor activity was assessed against TLX5 tumors in CBA/CA mouse by inoculation of 2 x 10e5 tumor cells through sc route and mean death of animals (treated/control) was reported at 20 mg/kg ip dose; type: functional; conditions: route subcutaneous
[3] = Antitumor activity was assessed against TLX5 tumors in CBA/CA mouse by inoculation of 2 x 10e5 tumor cells through sc route and mean death of animals (treated/control) was reported at 80 mg/kg ip dose; type: functional; conditions: route subcutaneous
L1210 [4] = assay: Antitumor activity was assessed against L1210 tumors in B6D2F1 mouse by inoculation of 10e5 tumor cells through iv route and mean death of animals (treated/control) was reported at 50 mg/kg po dose; type: functional
L1210 [5] = assay: Antitumor activity was assessed against L1210 tumors in B6D2F1 mouse by inoculation of 10e5 tumor cells through iv route and mean death of animals (treated/control) was reported at 100 mg/kg po dose; type: functional
[6] = Antitumor activity was assessed against TLX5 tumors in CBA/CA mouse by inoculation of 2 x 10e5 tumor cells through sc route and mean death of animals (treated/control) was reported at 10 mg/kg ip dose; type: functional; conditions: route subcutaneous
L1210 [7] = assay: Antitumor activity was assessed against L1210 tumors in B6D2F1 mouse by inoculation of 10e5 tumor cells through iv route and number of Survivors to duration was reported at 100 mg/kg po dose; 5/7; type: functional
L1210 [8] = assay: Antitumor activity was assessed against L1210 tumors in B6D2F1 mouse by inoculation of 10e5 tumor cells through iv route and mean death of animals (treated/control) was reported at 200 mg/kg po dose; type: functional
[9] = Antitumor activity was assessed against TLX5 tumors in CBA/CA mouse by inoculation of 2 x 10e5 tumor cells through sc route and mean death of animals (treated/control) was reported at 40 mg/kg ip dose; type: functional; conditions: route subcutaneous
L1210 [10] = assay: Antitumor activity was assessed against L1210 tumors in B6D2F1 mouse by inoculation of 10e5 tumor cells through iv route and mean death of animals (treated/control) was reported at 25 mg/kg po dose; type: functional
[11] = Antitumor activity was assessed against TLX5 tumors in CBA/CA mouse by inoculation of 2 x 10e5 tumor cells through sc route and mean death of animals (treated/control) was reported at 160 mg/kg ip dose; type: functional; conditions: route subcutaneous
[12] = Antitumor activity was assessed against TLX5 tumors in CBA/CA mouse by inoculation of 2 x 10e5 tumor cells through subcutaneous route and mean death of animals (treated/control) was reported at 20 mg/kg dose; type: functional
[13] = Antitumor activity was assessed against TLX5 tumors in CBA/CA mouse by inoculation of 2 x 10e5 tumor cells through subcutaneous route and number of Survivors to duration was reported at 20 mg/kg ip dose; 3/5; type: functional
L1210 [14] = assay: Antitumor activity was assessed against L1210 tumors in B6D2F1 mouse by inoculation of 10e5 tumor cells through intravenous route and mean death of animals (treated/control) was reported at 40 mg/kg peroral dose; type: functional; conditions: route oral
[15] = Antitumor activity was assessed against TLX5 tumors in CBA/CA mouse by inoculation of 2 x 10e5 tumor cells through subcutaneous route and mean death of animals (treated/control) was reported at 40 mg/kg dose; type: functional
[16] = Antitumor activity was assessed against TLX5 tumors in CBA/CA mouse by inoculation of 2 x 10e5 tumor cells through subcutaneous route and number of Survivors to duration was reported at 40 mg/kg ip dose; 1/5; type: functional
[17] = Antitumor activity was assessed against TLX5 tumors in CBA/CA mouse by inoculation of 2 x 10e5 tumor cells through subcutaneous route and mean death of animals (treated/control) was reported at 80 mg/kg dose; type: functional
L1210 [18] = assay: Antitumor activity was assessed against L1210 tumors in B6D2F1 mouse by inoculation of 10e5 tumor cells through intravenous route and number of Survivors to duration was reported at 20 mg/kg peroral dose; 6/7; type: functional; conditions: route oral
L1210 [19] = assay: Antitumor activity was assessed against L1210 tumors in B6D2F1 mouse by inoculation of 10e5 tumor cells through intravenous route and mean death of animals (treated/control) was reported at 10 mg/kg peroral dose; type: functional; conditions: route oral
L1210 [20] = assay: Antitumor activity was assessed against L1210 tumors in B6D2F1 mouse by inoculation of 10e5 tumor cells through intravenous route and mean death of animals (treated/control) was reported at 20 mg/kg peroral dose; type: functional; conditions: route oral
L1210 [21] = assay: Antitumor activity was assessed against L1210 tumors in B6D2F1 mouse by inoculation of 10e5 tumor cells through iv route and number of survivors to duration was reported at 200 mg/kg po dose; 2/7; type: functional
[22] = Antitumor activity was assessed against TLX5 tumors in CBA/CA mouse by inoculation of 2 x 10e5 tumor cells through subcutaneous route and mean death of animals (treated/control) was reported at 160 mg/kg dose; type: functional
[23] = Antitumor activity was assessed against TLX5 tumors in CBA/CA mouse by inoculation of 2 x 10e5 tumor cells through subcutaneous route and mean death of animals (treated/control) was reported at 320 mg/kg dose; type: functional
L1210 [24] = assay: Antitumor activity was assessed against L1210 tumors in B6D2F1 mouse by inoculation of 10e5 tumor cells through intravenous route and mean death of animals (treated/control) was reported at 5 mg/kg peroral dose; type: functional; conditions: route oral
[25] = Antitumor activity was assessed against TLX5 tumors in CBA/CA mouse by inoculation of 2 x 10e5 tumor cells through subcutaneous route and mean death of animals (treated/control) was reported at 5 mg/kg ip dose; type: functional
[26] = Antitumor activity was assessed against TLX5 tumors in CBA/CA mouse by inoculation of 2 x 10e5 tumor cells through subcutaneous route and mean death of animals (treated/control) was reported at 20 mg/kg ip dose; type: functional
[27] = Antitumor activity was assessed against TLX5 tumors in CBA/CA mouse by inoculation of 2 x 10e5 tumor cells through subcutaneous route and number of Survivors to duration was reported at 40 mg/kg ip dose; 4/5; type: functional
[28] = Antitumor activity was assessed against TLX5 tumors in CBA/CA mouse by inoculation of 2 x 10e5 tumor cells through subcutaneous route and mean death of animals (treated/control) was reported at 10 mg/kg ip dose; type: functional
[29] = Antitumor activity was assessed against TLX5 tumors in CBA/CA mouse by inoculation of 2 x 10e5 tumor cells through subcutaneous route and mean death of animals (treated/control) was reported at 40 mg/kg ip dose; type: functional
L1210 [30] = assay: Antitumor activity was assessed against L1210 tumors in B6D2F1 mouse by inoculation of 10e5 tumor cells through intravenous route and number of Survivors to duration was reported at 40 mg/kg peroral dose; 1/7; type: functional; conditions: route oral
[31] = Antitumor activity was assessed against TLX5 tumors in CBA/CA mouse by inoculation of 2 x 10e5 tumor cells through sc route and number of Survivors to duration was reported at 160 mg/kg ip dose; 1/5; type: functional; conditions: route subcutaneous
[32] = Antitumor activity was assessed against TLX5 tumors in CBA/CA mouse by inoculation of 2 x 10e5 tumor cells through sc route and mean death of animals (treated/control) was reported at 320 mg/kg ip dose; type: functional; conditions: route subcutaneous
L1210 [33] = assay: Antitumor activity was assessed against L1210 tumors in B6D2F1 mouse by inoculation of 10e5 tumor cells through iv route and number of Survivors to duration was reported at 200 mg/kg po dose; 10/10; type: functional
L1210 [34] = assay: Antitumor activity was assessed against L1210 tumors in B6D2F1 mouse by inoculation of 10e5 tumor cells through intraperitoneal route and number of Survivors to duration was reported at 40 mg/kg peroral dose; 4/10; conditions: route oral
[35] = Antitumor activity was assessed against TLX5 tumors in CBA/CA mouse by inoculation of 2 x 10e5 tumor cells through subcutaneous route and number of Survivors to duration was reported at 40 mg/kg iv dose; 5/5
L1210 [36] = assay: Antitumor activity was assessed against L1210 tumors in B6D2F1 mouse by inoculation of 10e5 tumor cells through intraperitoneal route and number of Survivors to duration was reported at 20 mg/kg peroral dose; 8/10; conditions: route oral
[37] = Antitumor activity was assessed against TLX5 tumors in CBA/CA mouse by inoculation of 2 x 10e5 tumor cells through subcutaneous route and number of Survivors to duration was reported at 80 mg/kg iv dose; 3/5
L1210 [38] = assay: Antitumor activity was assessed against L1210 tumors in B6D2F1 mouse by inoculation of 10e5 tumor cells through intravenous route and mean death of animals (treated/control) was reported at 80 mg/kg peroral dose; type: functional; conditions: route oral
L1210 [39] = assay: Antitumor activity was assessed against L1210 tumors in B6D2F1 mouse by inoculation of 10e5 tumor cells through intravenous route and mean death of animals (treated/control) was reported at 160 mg/kg peroral dose; type: functional; conditions: route oral
[40] = (§1) Antitumor activity was assessed against L1210 tumors in B6D2F1 mouse by inoculation of 10e5 tumor cells through intravenous route and mean death of animals (treated/control) was reported at 50 mg/kg peroral dose; type: functional; conditions: route oral
[41] = Antitumor activity was assessed against L1210 tumors in B6D2F1 mouse by inoculation of 10e5 tumor cells through intravenous route and mean death of animals (treated/control) was reported at 200 mg/kg peroral dose; type: functional; conditions: route oral
[42] = Antitumor activity was assessed against L1210 tumors in B6D2F1 mouse by inoculation of 10e5 tumor cells through intravenous route and mean death of animals (treated/control) was reported at 100 mg/kg peroral dose; type: functional; conditions: route oral
L1210 [43] = assay: Antitumor activity was assessed against L1210 tumors in B6D2F1 mouse by inoculation of 10e5 tumor cells through intravenous route and number of Survivors to duration was reported at 40 mg/kg peroral dose; 5/7; type: functional; conditions: route oral
L1210 [44] = assay: as §1; type: functional; conditions: route oral
L1210 [45] = assay: Antitumor activity was assessed against L1210 tumors in B6D2F1 mouse by inoculation of 10e5 tumor cells through iv route and number of Survivors to duration was reported at 40 mg/kg peroral dose; 2/7; type: functional; conditions: route oral
[46] = Antitumor activity was assessed against TLX5 tumors in CBA/CA mouse by inoculation of 2 x 10e5 tumor cells through sc route and number of Survivors to duration was reported at 20 mg/kg ip dose; 1/5; type: functional; conditions: route subcutaneous

NC(=O)c1cnn2c(=O)n(CCCl)nnc12
Survivors (L1210 [1]): 1 | T/C [2]: 123% | T/C [3]: 143% | T/C (L1210 [4]): 186% | T/C (L1210 [5]): >530% | T/C [6]: 98% | Survivors (L1210 [7]): 5 | T/C (L1210 [8]): 363% | T/C [9]: 116% | T/C (L1210 [10]): 120% | T/C [11]: 221%

CNS(=O)(=O)c1ncn2c(=O)n(CCCl)nnc12
T/C [12]: >375% | Survivors [13]: 3 | T/C (L1210 [14]): 25% | T/C [15]: >203% | Survivors [16]: 1 | T/C [17]: 68% | Survivors (L1210 [18]): 6 | T/C (L1210 [19]): 283% | T/C (L1210 [20]): >666%

CCCc1nc(C(N)=O)c2nnn(CCCl)c(=O)n12
T/C (L1210 [4]): 151% | T/C (L1210 [5]): 186% | Survivors (L1210 [21]): 2 | T/C (L1210 [8]): >295%

O=C(Nc1ccccc1)c1ncn2c(=O)n(CCCl)nnc12
T/C [12]: 98% | T/C [15]: 103% | T/C [22]: 98% | T/C [17]: 100% | T/C [23]: 98%

NC(=O)c1ncn2c(=O)n(CCCl)nnc12 [MITOZOLOMIDE]
T/C (L1210 [24]): 133% | T/C [25]: 113% | T/C [26]: 167% | Survivors [27]: 4 | T/C (L1210 [14]): >330% | T/C [28]: 163% | T/C (L1210 [19]): 178% | T/C (L1210 [20]): 217% | T/C [29]: >458% | Survivors (L1210 [30]): 1

CN(C)C(=O)c1cnn2c(=O)n(CCCl)nnc12
T/C [3]: 131% | T/C (L1210 [4]): 144% | Survivors [31]: 1 | T/C (L1210 [5]): 250% | T/C [32]: 48% | T/C (L1210 [8]): >600% | T/C [9]: 109% | T/C [11]: >248% | Survivors (L1210 [33]): 10

CN(C)C(=O)c1ncn2c(=O)n(CCCl)nnc12
Survivors (L1210 [34]): 4 | T/C [12]: 161% | T/C (L1210 [14]): >235% | T/C [15]: >508% | T/C [22]: 68% | T/C [17]: >358% | Survivors [35]: 5 | Survivors (L1210 [36]): 8 | Survivors [37]: 3 | T/C (L1210 [19]): 197% | T/C (L1210 [20]): >290%

O=C(NCc1ccccc1)c1ncn2c(=O)n(CCCl)nnc12
T/C (L1210 [14]): 100% | T/C (L1210 [38]): 130% | T/C (L1210 [39]): 183%

NC(=O)c1nc(CCc2ccccc2)n2c(=O)n(CCCl)nnc12
T/C [40]: 100% | T/C [41]: 100% | T/C [42]: 100%

CS(=O)(=O)c1cnn2c(=O)n(CCCl)nnc12
T/C (L1210 [14]): >447% | Survivors (L1210 [43]): 5 | T/C (L1210 [19]): 155% | T/C (L1210 [20]): 307%

CS(=O)(=O)c1ncn2c(=O)n(CCCl)nnc12
T/C (L1210 [44]): 217% | T/C [12]: >214% | T/C (L1210 [14]): >310% | T/C [15]: 66% | T/C [17]: 66% | Survivors (L1210 [45]): 2 | Survivors [46]: 1 | T/C (L1210 [19]): 217% | T/C (L1210 [20]): 257%
